Experimental data published in article PMC6458391, “Deep eutectic solvent for an expeditious sono-synthesis of novel series of bis-quinazolin-4-one derivatives as potential anti-cancer agents” (Royal Society Open Science, 2019).
Where two headings read alike, the source gives them in different places.

What was measured:
[1] = system: A549 (lung cancer) cell line; assay: MTT cytotoxicity assay, A549; settings: for inhibition: 48 h, triplicate, mean ± s.e.m.; for IC50: read-out: IC50 A549, MTT, 48 h drug treatment, A549
[2] = read-out: Cells viability (%) A549, 10 μM, 10 μM
[3] = read-out: Cells viability (%) A549, 30 μM, 30 μM

Row | Compound | melting point | inhibition [1, 2] | inhibition [1, 3] | IC50 [1] | potency against A549 relative to sorafenib ([1]; from IC50 values)
1 | Cc1nc2ccc(Cl)cc2c(=O)n1[C@H]1CC[C@H](n2c(C)nc3ccc(Cl)cc3c2=O)CC1 [Compound 3c, 3,3′-((1R,4R)-Cyclohexane-1,4-diyl)bis(6-chloro-2-methylquinazolin-4(3H)-one)] | 311 to 313 °C | 61.1 ± 1.82% | 96.98 ± 0.4% | 8.14 µM | –
2 | Cc1nc2ccc([N+](=O)[O-])cc2c(=O)n1Cc1ccc(Cn2c(C)nc3ccc([N+](=O)[O-])cc3c2=O)cc1 [Compound 4e, 3,3′-(1,4-Phenylenebis(methylene))bis(2-methyl-6-nitroquinazolin-4(3H)-one)] | 350 to 353 °C | 80.2 ± 2.1% | 87 ± 1.45% | 2.98 µM | –
3 | Cc1ccc2nc(C)n(CCn3c(C)nc4ccc(C)cc4c3=O)c(=O)c2c1 [Compound 5b, 3,3′-(Ethane-1,2-diyl)bis(2,6-dimethylquinazolin-4(3H)-one)] | 211 to 212 °C | 40 ± 2.11% | 89.7 ± 1.76% | 15.7 µM | –
4 | Cc1nc2ccccc2c(=O)n1-c1ccccc1N | 109 to 111 °C | – | – | – | –
5 | Cc1ccc2nc(C)n(Cc3ccc(Cn4c(C)nc5ccc(C)cc5c4=O)cc3)c(=O)c2c1 [Compound 4b, 3,3′-(1,4-Phenylenebis(methylene))bis(2,6-dimethylquinazolin-4(3H)-one)] | 285 to 287 °C | 76 ± 2.21% | 78.7 ± 1.76% | 6.79 µM | –
6 | Cc1nc2ccccc2c(=O)n1-c1cccc(N)c1 | 121 to 123 °C | – | – | – | –
7 | Cc1ccc2nc(C)n([C@H]3CC[C@H](n4c(C)nc5ccc(C)cc5c4=O)CC3)c(=O)c2c1 [Compound 3b, 3,3′-((1R,4R)-Cyclohexane-1,4-diyl)bis(2,6-dimethylquinazolin-4(3H)-one)] | 280 to 281 °C | 39.3 ± 2.76% | 90.12 ± 0.25% | 15.7 µM | –
8 | Cc1nc2ccc(F)cc2c(=O)n1Cc1ccc(Cn2c(C)nc3ccc(F)cc3c2=O)cc1 [Compound 4d, 3,3′-(1,4-Phenylenebis(methylene))bis(6-fluoro-2-methylquinazolin-4(3H)-one)] | 217 to 219 °C | 94.29 ± 0.39% | 96.09 ± 0.244% | 5.55 µM | –
9 | CNC(=O)c1cc(Oc2ccc(NC(=O)Nc3ccc(Cl)c(C(F)(F)F)c3)cc2)ccn1 [Sorafenib, sorafenib, reference compound] | – | 89.8 ± 1.14% | 91.2 ± 1.44% | 5.2 µM | –
10 | Cc1nc2ccccc2c(=O)n1Cc1ccc(Cn2c(C)nc3ccccc3c2=O)cc1 [Compound 4a, 3,3′-(1,4-Phenylenebis(methylene))bis(2-methylquinazolin-4(3H)-one)] | 277 to 279 °C | 60.4 ± 3.31% | 62.9 ± 1.45% | 6.11 µM | –
11 | Cc1nc2ccc([N+](=O)[O-])cc2c(=O)n1-c1ccc(S(=O)(=O)c2ccc(-n3c(C)nc4ccc([N+](=O)[O-])cc4c3=O)cc2)cc1 [Compound 7e, 3,3′-(Sulfonylbis(4,1-phenylene))bis(2-methyl-6-nitroquinazolin-4(3H)-one)] | 316 to 319 °C | 95.99 ± 0.14% | 96.76 ± 0.87% | 2.75 µM | approximately twice as potent as sorafenib
12 | Cc1nc2ccccc2c(=O)n1[C@H]1CC[C@H](n2c(C)nc3ccccc3c2=O)CC1 [Compound 3a, 3,3′-((1R,4R)-Cyclohexane-1,4-diyl)bis(2-methylquinazolin-4(3H)-one)] | 273 to 275 °C | 60.2 ± 1.56% | 97.2 ± 0.41% | 8.15 µM | –
13 | Cc1nc2ccccc2c(=O)n1CCn1c(C)nc2ccccc2c1=O [Compound 5a, 3,3′-(Ethane-1,2-diyl)bis(2-methylquinazolin-4(3H)-one)] | 190 to 192 °C | 32.4 ± 2.91% | 88.7 ± 1.83% | 12.3 µM | –
14 | Cc1nc2ccc(Cl)cc2c(=O)n1Cc1ccc(Cn2c(C)nc3ccc(Cl)cc3c2=O)cc1 [Compound 4c, 3,3′-(1,4-Phenylenebis(methylene))bis(6-chloro-2-methylquinazolin-4(3H)-one)] | 327 to 330 °C | 79.5 ± 2.61% | 81.8 ± 0.87% | 6.07 µM | –
15 | Cc1nc2ccc(F)cc2c(=O)n1CCn1c(C)nc2ccc(F)cc2c1=O [Compound 5d, 3,3′-(Ethane-1,2-diyl)bis(6-fluoro-2-methylquinazolin-4(3H)-one)] | 219 to 221 °C | 54.49 ± 0.27% | 90 ± 43% | 7.95 µM | –
16 | Cc1nc2ccc([N+](=O)[O-])cc2c(=O)n1[C@H]1CC[C@H](n2c(C)nc3ccc([N+](=O)[O-])cc3c2=O)CC1 [Compound 3e, 3,3′-((1R,4R)-Cyclohexane-1,4-diyl)bis(2-methyl-6-nitroquinazolin-4(3H)-one)] | 301 to 304 °C | 77.1 ± 1.78% | 82.8 ± 1.64% | 5.34 µM | –
17 | Cc1nc2ccc([N+](=O)[O-])cc2c(=O)n1CCn1c(C)nc2ccc([N+](=O)[O-])cc2c1=O [Compound 5e, 3,3′-(Ethane-1,2-diyl)bis(2-methyl-6-nitroquinazolin-4(3H)-one)] | 278 to 279 °C | 91.54 ± 0.56% | 97.83 ± 0.24% | 5.05 µM | –
18 | Cc1nc2ccccc2c(=O)n1-c1cccc(-n2c(C)nc3ccccc3c2=O)c1 [Compound 11, 3,3′-(1,3-Phenylene)bis(2-methylquinazolin-4(3H)-one)] | 236 to 238 °C | 79.8 ± 1.05% | 83.2 ± 1.02% | 5.94 µM | –
19 | Cc1nc2ccc(Cl)cc2c(=O)n1CCn1c(C)nc2ccc(Cl)cc2c1=O [Compound 5c, 3,3′-(Ethane-1,2-diyl)bis(6-chloro-2-methylquinazolin-4(3H)-one)] | 244 to 246 °C | 61.9 ± 2.34% | 82.1 ± 1.93% | 7.98 µM | –
20 | Cc1nc2ccc(F)cc2c(=O)n1[C@H]1CC[C@H](n2c(C)nc3ccc(F)cc3c2=O)CC1 [Compound 3d, 3,3'-((1R,4R)-Cyclohexane-1,4-diyl)bis(6-fluoro-2-methylquinazolin-4(3H)-one)] | 262 to 264 °C | 67.49 ± 0.27% | 90 ± 43% | 8.11 µM | –
21 | Cc1nc2ccccc2c(=O)n1-c1ccccc1-n1c(C)nc2ccccc2c1=O [Compound 9, 3,3′-(1,2-Phenylene)bis(2-methylquinazolin-4(3H)-one)] | 187 to 190 °C | – | – | – | –
22 | Cc1nc2ccc([N+](=O)[O-])cc2c(=O)n1-c1ccc(-n2c(C)nc3ccc([N+](=O)[O-])cc3c2=O)cc1 [Compound 6e, 3,3′-(1,4-Phenylene)bis(2-methyl-6-nitroquinazolin-4(3H)-one)] | 307 to 310 °C | 95.4 ± 0.24% | 97.6 ± 0.21% | 3.43 µM | –

Now from value to compound, other results behind:

Row | melting point | Compound | inhibition [1, 2] | inhibition [1, 3] | IC50 [1] | potency against A549 relative to sorafenib ([1]; from IC50 values)
23 | 287 to 290 °C | Cc1nc2ccc(Cl)cc2c(=O)n1-c1ccc(-n2c(C)nc3ccc(Cl)cc3c2=O)cc1 [Compound 6c, 3,3′-(1,4-Phenylene)bis(6-chloro-2-methylquinazolin-4(3H)-one)] | 91.98 ± 0.49% | 98.02 ± 0.21% | 5.15 µM | –
24 | 332 to 335 °C | Cc1nc2ccc(Cl)cc2c(=O)n1-c1ccc(S(=O)(=O)c2ccc(-n3c(C)nc4ccc(Cl)cc4c3=O)cc2)cc1 [Compound 7c, 3,3′-(Sulfonylbis(4,1-phenylene))bis(6-chloro-2-methylquinazolin-4(3H)-one)] | 72.3 ± 0.78% | 88.43 ± 0.19% | 4.21 µM | –
25 | 301 to 303 °C | Cc1nc2ccc(F)cc2c(=O)n1-c1ccc(S(=O)(=O)c2ccc(-n3c(C)nc4ccc(F)cc4c3=O)cc2)cc1 [Compound 7d, 3,3′-(Sulfonylbis(4,1-phenylene))bis(6-fluoro-2-methylquinazolin-4(3H)-one)] | 96.46 ± 0.65% | 96.68 ± 0.17% | 3.45 µM | –
26 | 178 to 180 °C | Cc1nc2ccccc2c(=O)n1-c1ccc(-n2c(C)nc3ccccc3c2=O)cc1 [Compound 6a, 3,3′-(1,4-Phenylene)bis(2-methylquinazolin-4(3H)-one)] | 54.49 ± 0.27% | 90 ± 43% | 8.41 µM | –
27 | 263 to 265 °C | Cc1ccc2nc(C)n(-c3ccc(-n4c(C)nc5ccc(C)cc5c4=O)cc3)c(=O)c2c1 [Compound 6b, 3,3′-(1,4-Phenylene)bis(2,6-dimethylquinazolin-4(3H)-one)] | 59.2 ± 1.53% | 95.12 ± 0.22% | 8.13 µM | –
28 | 269 to 272 °C | Cc1nc2ccc(F)cc2c(=O)n1-c1ccc(-n2c(C)nc3ccc(F)cc3c2=O)cc1 [Compound 6d, 3,3′-(1,4-Phenylene)bis(6-fluoro-2-methylquinazolin-4(3H)-one)] | 82.7 ± 1.67% | 81.78 ± 0.45% | 4.54 µM | –
29 | 310 to 313 °C | Cc1ccc2nc(C)n(-c3ccc(S(=O)(=O)c4ccc(-n5c(C)nc6ccc(C)cc6c5=O)cc4)cc3)c(=O)c2c1 [Compound 7b, 3,3′-(Sulfonylbis(4,1-phenylene))bis(2,6-dimethylquinazolin-4(3H)-one)] | 53.1 ± 2.2% | 86.8 ± 1.19% | 5.77 µM | –
30 | 294 to 297 °C | Cc1nc2ccccc2c(=O)n1-c1ccc(S(=O)(=O)c2ccc(-n3c(C)nc4ccccc4c3=O)cc2)cc1 [Compound 7a, 3,3′-(Sulfonylbis(4,1-phenylene))bis(2-methylquinazolin-4(3H)-one)] | 82.7 ± 1.63% | 82.1 ± 0.5% | 4.58 µM | –
